In US20020090352A1, “Compositions and methods for use in modulating immune system function” (priority 2000, published 2002):
Entries after “also recorded” stand apart in the source; their conditions may differ. Marks after values point to notes of the source that are not given here.

Tests used:
[1] = test system: immature LC (Langerhans cells); test: Apoptosis of immature LC, flow cytometry of PI stained nuclei (sub 2N particles) / annexin V; type: cell-based, human; conditions: for induction of apoptosis / death of immature LC by the substance on its own: no TNFα; for induction of apoptosis / death of immature LC by the substance on its own / inhibition of retinoid-induced apoptosis / cell death of immature LC: result in words
[2] = test system: immature LC (Langerhans cells); test: Activation of immature LC: HLA-DR and CD86 expression by flow cytometry; type: cell-based, human; parameters: class II or CD86 upregulation on immature LC: dose or concentration left out as unconfirmed; conditions: for activation of immature LC (class II / CD86, DRhi-CD86hi) in the presence of TNFα: TNFα 1-10 ng/ml
Method: Immature LC were cultured with retinol or vehicle and/or TNFα for 40 h. Cells were washed and incubated with HLA-DR-FITC and CD86-PE or isotype controls for 15 min at 4° C. 10^4 events were then analyzed with a FACScalibur (Becton Dickinson) using CellQuest software (Becton Dickinson). % are given for DRhi CD86hi cells gated as indicated. Data are representative of three experiments on different donors.
FIG. 3A: Day 6 immature LC were cultured for 40 h with TNFα and/or retinoids or vehicle as indicated. Cells were washed and stained with HLA-DR-FITC and CD86-PE or isotype controls for 15 min at 4° C. 10^4 events were then analyzed with a FACScalibur (Becton Dickinson) using CellQuest software (Becton Dickinson). Data are given for DRhi/CD86 hi cells gated as indicated, and are representative of 10 experiments on different donors.
Percentages of DRhi/CD86 hi cells are represented and results are expressed as the mean±SD of at last three experiments on different donors.
Flow Cytometry Analysis. 1×10^5 cells were incubated in 96-well plates (Becton Dickinson Labware, Franklin Lakes, N.J.) for 15 min at 4 ° C. in PBS, 2% human AB serum, and 0.01 M NaN3, with FITC-conjugated anti-DR (Immunotech, Marseille, France) and PE-conjugated CD86 (Pharmingen, San Diego, Calif.) at the appropriate concentration, or with control isotype-matched irrelevant mAbs at the same concentration. After washing, 10^4 events were analyzed with a FACScalibur (Becton Dickinson Immunocytometry Systems, Mountain View, Calif.) using CellQuest software.

NF-κB complexes = test: Electrophoretic mobility shift assay of nuclear NF-κB complexes in immature LC; type: cell-based, human; conditions: retinoid 1 μM 6 h, then TNFα 50 ng/ml 30 min; result in words
RARα AF2 = target: T1, RARα AF2 (Homo sapiens, UniProt P10276); conditions: retinoid activity, reporter cells; cited from earlier work; also: key: '+' = agonist; '(+)' = weak agonist; '−' = antagonist; '0' = absence of agonist and antagonist activities
T1 construct: expressed in transfected cells
T1 sequence (P10276 183-417 limits assumed): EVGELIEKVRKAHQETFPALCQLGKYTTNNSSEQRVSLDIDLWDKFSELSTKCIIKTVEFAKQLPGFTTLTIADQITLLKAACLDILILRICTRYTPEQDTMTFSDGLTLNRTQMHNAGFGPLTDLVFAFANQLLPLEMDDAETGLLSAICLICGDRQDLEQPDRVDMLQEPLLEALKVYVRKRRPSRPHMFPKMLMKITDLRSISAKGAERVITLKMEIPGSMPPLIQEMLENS

RARβ AF2 = target: T2, RARβ AF2 (Homo sapiens, UniProt P10826); conditions: retinoid activity, reporter cells; cited from earlier work; also: key: '+' = agonist; '(+)' = weak agonist; '−' = antagonist; '0' = absence of agonist and antagonist activities
T2 construct: expressed in transfected cells
T2 sequence (P10826 183-417 limits assumed): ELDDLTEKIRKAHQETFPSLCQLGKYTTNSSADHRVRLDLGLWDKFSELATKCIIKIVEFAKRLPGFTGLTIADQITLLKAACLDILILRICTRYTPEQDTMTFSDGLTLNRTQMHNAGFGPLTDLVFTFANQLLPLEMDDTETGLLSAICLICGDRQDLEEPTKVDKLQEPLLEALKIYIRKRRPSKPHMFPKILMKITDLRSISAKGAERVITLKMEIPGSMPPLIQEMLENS

RARγ AF2 = target: T3, RARγ AF2 (Homo sapiens, UniProt P13631); conditions: retinoid activity, reporter cells; cited from earlier work; also: key: '+' = agonist; '(+)' = weak agonist; '−' = antagonist; '0' = absence of agonist and antagonist activities
T3 construct: expressed in transfected cells
T3 sequence (P13631 185-419 limits assumed): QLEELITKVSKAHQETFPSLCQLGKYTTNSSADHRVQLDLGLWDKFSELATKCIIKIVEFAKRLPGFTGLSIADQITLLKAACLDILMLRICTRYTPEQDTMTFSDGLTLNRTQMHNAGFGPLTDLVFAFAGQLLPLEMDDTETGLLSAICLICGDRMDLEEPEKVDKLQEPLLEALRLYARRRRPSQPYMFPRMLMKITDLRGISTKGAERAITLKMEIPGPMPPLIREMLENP

RXR AF2 = conditions: retinoid activity, reporter cells; cited from earlier work
RXRα homodimer [(RXR)2] = target: T4, RXRα homodimer [(RXR)2] (Homo sapiens, UniProt P19793); conditions: retinoid activity, transient transfection; cited from earlier work; also: key: '+' = agonist; '(+)' = weak agonist; '−' = antagonist; '0' = absence of agonist and antagonist activities
T4 construct: expressed in transfected cells
T4 sequence (P19793 1-462): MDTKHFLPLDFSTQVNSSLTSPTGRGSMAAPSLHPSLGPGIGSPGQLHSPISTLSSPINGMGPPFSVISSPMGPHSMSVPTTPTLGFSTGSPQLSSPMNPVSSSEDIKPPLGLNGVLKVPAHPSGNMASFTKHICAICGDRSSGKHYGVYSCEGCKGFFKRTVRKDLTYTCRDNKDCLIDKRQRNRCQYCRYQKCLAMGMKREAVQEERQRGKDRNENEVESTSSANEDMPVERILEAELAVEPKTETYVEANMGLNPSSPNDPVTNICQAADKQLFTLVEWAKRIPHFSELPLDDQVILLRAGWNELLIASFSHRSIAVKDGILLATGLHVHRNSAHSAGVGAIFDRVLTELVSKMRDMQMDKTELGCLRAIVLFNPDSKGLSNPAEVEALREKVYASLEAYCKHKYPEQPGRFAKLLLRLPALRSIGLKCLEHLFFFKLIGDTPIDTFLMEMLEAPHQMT

RARα-RXRα heterodimer = target: T5, RARα-RXRα heterodimer (Homo sapiens, UniProt P10276+P19793); conditions: retinoid activity, transient transfection; cited from earlier work
T5 construct: expressed in transfected cells
T5 sequence (P10276 1-462): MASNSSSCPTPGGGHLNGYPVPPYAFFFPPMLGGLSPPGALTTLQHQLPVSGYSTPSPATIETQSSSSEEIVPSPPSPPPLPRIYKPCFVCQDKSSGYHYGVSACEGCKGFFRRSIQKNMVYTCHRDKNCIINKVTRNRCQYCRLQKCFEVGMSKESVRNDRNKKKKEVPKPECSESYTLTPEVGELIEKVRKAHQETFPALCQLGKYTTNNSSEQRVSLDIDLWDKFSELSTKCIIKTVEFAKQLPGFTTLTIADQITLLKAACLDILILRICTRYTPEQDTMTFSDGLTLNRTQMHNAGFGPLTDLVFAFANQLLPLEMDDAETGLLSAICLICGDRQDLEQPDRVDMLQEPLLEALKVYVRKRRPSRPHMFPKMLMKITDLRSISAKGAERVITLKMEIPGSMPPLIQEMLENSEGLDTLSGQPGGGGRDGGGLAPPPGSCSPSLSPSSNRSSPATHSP
T5 sequence (P19793 1-462): T4 sequence (P19793 1-462)

T-cells stimulated by LC = type: cell-based, human
[3] = 1 nM, two days in culture, mean ± SD
[4] = 10 nM, two days in culture, mean ± SD
[5] = 100 nM, two days in culture, mean ± SD
[6] = 1 μM, two days in culture, mean ± SD
[7] = Table 3C, retinoid 1 μM in medium, no inhibitor

| SMILES | percentage of apoptotic (<2N) particles [1, 3] | percentage of apoptotic (<2N) particles [1, 4] | percentage of apoptotic (<2N) particles ([1]; 100 nM SR11237 + 1 nM ligand) | percentage of apoptotic (<2N) particles ([1]; 100 nM SR11237 + 10 nM ligand) | percentage of apoptotic (<2N) particles ([1]; 100 nM SR11237 + 100 nM ligand) | percentage of apoptotic (<2N) particles ([1]; 100 nM SR11237 + 1 μM ligand) | percentage of apoptotic (<2N) particles [1, 5] | percentage of apoptotic (<2N) particles [1, 6] | percentage of apoptotic (<2N) particles [1, 7] [%] | induction of apoptosis / death of immature LC by the substance on its own [1] | activation of immature LC (class II / CD86, DRhi-CD86hi) in the presence of TNFα ([2]; result in words) | nuclear translocation / DNA-binding activity of NF-κB complexes with TNFα (NF-κB complexes) | RARα AF2 (RARα AF2) | RARβ AF2 (RARβ AF2) | RARγ AF2 (RARγ AF2) | RXR AF2 (RXR AF2) | (RXR)2 AF2 (RXRα homodimer [(RXR)2]) | RARα-RXR DR5 (RARα-RXRα heterodimer) | further results |
| --- | --- | --- | --- | --- | --- | --- | --- | --- | --- | --- | --- | --- | --- | --- | --- | --- | --- | --- | --- |
| CC1(C)C(=O)C(C)(C)c2cc(C(=O)Nc3ccc(C(=O)O)cc3)ccc21 [Compound I, 4-[[(2,3-Dihydro-1,1,3,3-tetramethyl-2-oxo-1H-inden-5-yl)carbonyl]amino]benzoic acid] | ≦5% | ≦5% | 6 ± 3% | 25 ± 10^(a) % | 32 ± 7% | 47 ± 10% | 27 ± 9% | 37 ± 7% | 38 ± 8 | apoptosis was induced | upregulate | synergize with TNFα | + | 0 | 0 | 0 | 0 | + | percentage of apoptotic (<2N) particles ([1]; 50 nM, two days in culture, mean ± SD): 18 ± 3^(b) %; percentage of apoptotic (<2N) particles ([1]; Table 3C, Compound I 100 nM + SR11237 100 nM in medium, no inhibitor): 38 ± 5% |
| CC1(C)CC=C(c2cnc3ccccc3c2)c2cc(C(=O)Nc3ccc(C(=O)O)cc3)ccc21 [Compound II, 4-[[[5,6-Dihydro-5,5-dimethyl-8-(3-quinolinyl)-2-naphthalenyl]carbonyl]amino]benzoic acid] | ≦5% | ≦5% | ≦5% | ≦5% | ≦5% | ≦5% | ≦5% | ≦5% |  | did not induce |  |  | −^(a)(b) | 0 | 0 | 0 | 0 | − | inhibition of retinoid-induced apoptosis / cell death of immature LC [1]: inhibited retinoid-induced apoptosis; inhibition of retinoid-induced apoptosis / cell death of immature LC ([1]; listed as Compound H): inhibited; synergy with the RXR agonist SR11237 for TNFα-induced LC activation ([2]; result in words): synergized with the RXR agonist (SR11237); enhancement of antigen presentation to antigen-specific T-cells in synergy with TNFα (T-cells stimulated by LC): synergized with the RXR agonist (SR11237) |
| CC1=C(/C=C/C(C)=C/C=C/C(C)=C/C(=O)O)C(C)(C)CCC1 [tRA, all-trans retinoic acid, reference compound] | ≦5% | ≦5% |  |  |  |  | 14 ± 6^(b) % | 36 ± 10% | 38 ± 10 | induced a similar dose- and time-dependent increase in death | synergize with TNFα; also recorded: upregulate | synergize with TNFα | +^(a) | + | + | 0^(a) |  |  | class II or CD86 upregulation on immature LC ([2]; in the absence or at low concentrations of TNFα): did not significantly induce |
